Laboratory results taken from patent publication US20130011473A1, “Preparation Method Of The Solid Formulation Of Clopidogrel Bisulfate” (priority 2010, published 2013).
Structures can show the parent of a compound that is named as a salt. Where two headings read alike, the source gives them in different places.

Assays:
phosphodiesterase = conditions: cited from earlier work

## COC(=O)[C@H](c1ccccc1Cl)N1CCc2sccc2C1 [Clopidogrel]
phosphodiesterase
  phosphodiesterase activity: did not inhibit

## COC(=O)[C@H](c1ccccc1Cl)N1CCc2sccc2C1 [Clopidgrel salt, methyl(+)-(S)-α(2-chlorophenyl)-6,7-dihydrothieno[3,2-c]pyridine-5(4H)-acetate sulfate (1:1)]
After being mixed with Colloidal Silicon Dioxide
  angle of repose: 40
As is
  angle of repose: greater than 45
